Measured values taken from publication PMC12320299 (Chemical Science, 2025).

Tests used:
[1] = Stability study by UV-Vis spectroscopy in PBS (1% DMSO); type: physicochemical; details: 40 μM 1a/2a, 80 μM 1b/2b
Experimental: Stability Study by UV-Vis Spectroscopy
All four compounds were freshly diluted in PBS (1% DMSO) from a DMSO stock solution at […]
80 µM. The stability of the compounds was monitored in a UV-Vis spectrophotometer (Perkin Elmer lambda 35 photometer) over 96 h by acquiring an UV-Vis spectrum every 30 mins. The percentage of the remaining intact compound was calculated by the ratio of the maximum absorbance of the tridentate complexes’ characteristic absorption band around 350– 370 nm after a given timepoint (A) compared to the one directly after dilution (A0). […]

SW480 cancer cells = test: Proteome profiling of compound-treated SW480 cancer cells (24 h, approx. IC50, CYT and NE fractions); type: cell-based, human
Experimental: To gain insight into potential modes of action and derive structure–activity relationships on a molecular level, proteomic profiling experiments were carried out based on label-free quantification (LFQ) by nano-liquid chromatography tandem mass spectrometry (nLC-MS/MS). […] Six replicates were used per condition. The perturbations were evaluated at subcellular resolution by fractionating cells into cytoplasmic (CYT) and nuclear (NE) protein fractions. Those have been separately proteolytically digested and analysed (Fig. 3A). The perturbations with the 3-Et-NQ and 3-Morph-NQ complexes were performed against their respective solvent-treated controls (CON), yielding a total of 72 samples. […] Statistical significance of individual protein regulations was calculated by multiple testing-corrected P-values based on 5% false discovery rate (FDR = 0.05 and S0 = 0.1).
The position of each group represents the summed fold-changes of the individual proteins in the group according to the subcellular space, i.e., CYT and NE fractions, while the size represents the number of proteins in each group. […]
Proteome profiling of compound-treated SW480 cancer cells […]
cells per well and left to adhere in complete cell culture medium. After 24 h, the medium was exchanged with fresh complete medium (DMSO mock control) or fresh medium containing […]
solution in DMSO, respectively) and incubated for another 24 h. Each condition was carried out in hexuplicates. The cells were processed according to a nucleocytoplasmic fractionation protocol as previously described.3 All steps were performed on ice. The medium was removed, and the cells were washed twice with 1×PBS (phosphate buffered saline, 3 mL). Then, PBS was thoroughly removed. Isotonic lysis buffer (10 mM HEPES, 10 mM NaCl, 3.5 mM MgCl2, 1 mM EGTA, 0.25 M Sucrose, 0.5% Triton X-100) containing protease inhibitors (1% PMSF, Sigma, and 1% protease and phosphatase inhibitor cocktail, Roche) was added to the flasks, the cells were scraped off and transferred into labelled 15 mL Falcon tubes. The cellular membrane was ruptured using shear stress by pressing the cell suspension through a syringe 9–12 times. Membrane rupture with intact nuclei was monitored under a microscope. After centrifugation (960 g, 5 min), the supernatant containing the cytoplasmic (CYT) proteins was transferred into new tubes containing ice-cold ethanol (1 : 5, HPLC grade) and precipitated […]
overnight at –20 °C. The pellet containing the nuclei was incubated with a hypertonic solution (10 mM Tris-HCl, 1 mM EDTA and 0.5 M NaCl) and subsequently diluted 1:10 with NP-40 buffer (10 mm Tris-HCl, 1 mm EDTA and 0.5% Triton X-100) containing protease inhibitors (1% PMSF, Sigma, and 1% protease and phosphatase inhibitor cocktail, Roche). After centrifugation (960 g, 5 min), the soluble nuclear (NE) proteins were also transferred into new tubes containing ice-cold ethanol (1 : 5, HPLC grade) and precipitated overnight at –20 °C.
The precipitated proteins were finally pelleted by centrifugation (5000 g, 30 min, 4 °C), the solution was decanted and the pellet dried under vacuum.

[2] = cytoplasmic fraction, FDR = 0.05, S0 = 0.1

With `CCC1=C2[O][Ru][O]C2(n2cccn2)c2ccccc2C1=O.Cc1ccc(C(C)C)cc1` (centres unmarked) [Compound 1a, [(3-ethyl-4-oxo-(pyrazolyl)-dihydronaphthalene)(cymene)ruthenium(II)]] the “intact complex, UV-vis, 24 h” value ([1]; 24 h) was 75%, the “intact complex, UV-vis, 96 h” value ([1]; 96 h) was 53% and the “N° proteins down-regulated, NE” value (SW480 cancer cells) was 211. The “N° proteins upregulated, NE” value (SW480 cancer cells) was 178, the “N° significantly regulated proteins, Total” value (SW480 cancer cells; CYT and NE) was 810 and the “TP53 regulation in cytoplasmic fraction” value (SW480 cancer cells; CYT fraction) was “strongest down-regulated protein”. For the same compound, the “N° proteins down-regulated, CYT” value (SW480 cancer cells; [2]) was 298 and the “N° proteins upregulated, CYT” value (SW480 cancer cells; [2]) was 123.
